The nature of data set [1]: Pharmacokinetics in CD-1 mice, serum by LC-MS/MS. In kind it is in vivo, mouse.
In data set [2] the test system is V600EBRAF melanoma cell lines. The data set can be described thus: Cell viability, panel of V600E BRAF melanoma cell lines. It is filed as cell-based. The following applies: range over the panel; read-out: IC50 values against a panel of V600EBRAF melanoma cell lines. The method, then: (§1) Cell Culture and reagents. All cell lines were grown in a 37° C., 5% CO2, humidified environment, in media containing 1% penicillin/streptomycin. Cell culture conditions are as follows: MDCK cells transfected with MDR1 (or ABCB1) were obtained from the Netherlands Cancer Institute (Amsterdam, The Netherlands) and maintained in DMEM with 10% fetal bovine serum (FBS, Gemini). Traditional cell lines A375, CHL-1, B16F10, and U118MG were grown in DMEM with 10% FBS, SK-MEL-28, U87 and T98G in EMEM with 10% FBS, AM-38 in EMEM with 20% HI-FBS (Gibco), HT29 in McCoy's 5A with 10% FBS, HCT116 in RPMI with 10% FBS. Compounds were dissolved in DMSO (1% final concentration, Sigma-Aldrich) for cell culture studies.
(§2) Cell viability assays. Cells were harvested, seeded in a 96-well plate and allowed to adhere overnight. Compound was added to each well in DMSO (1% final concentration). Cells were incubated for 72 hours before viability was assessed by the Alamar Blue Assay. Raptinal ([…]) was used as a dead control.

In another data set the test system is cell lines with WTBRAF. Briefly: Cell viability, cell lines with WT BRAF. It is filed as cell-based. How it is done:
as §1, §2

Data set [3] relates to MAPK signaling (phospho-MEK1/2, phospho-ERK1/2) in AM-38 cells. Briefly: Immunoblotting of MEK1/2 and ERK1/2 phosphorylation, AM-38. In kind it is cell-based. The conditions noted are these: AM-38, 1 h of treatment. The method, then: Immunoblotting. Cells were lysed using RIPA buffer containing phosphatase (BioVision) and protease inhibitor cocktail (Calbiochem). Protein concentration was determined using the BCA assay (Pierce). Cell lysates containing […] of protein were loaded into each lane of 4% to 20% gradient gels (Bio-Rad) for SDS-PAGE. Proteins were transferred onto PDVF membrane for Western blot analysis. Blots were blocked with BSA for one hour followed by incubation with primary antibody overnight (dilution according to manufacturer's protocols), and then secondary antibody was incubated for one hour. Blots were then imaged with a ChemiDoc Touch (Bio-Rad) after incubation with SuperSignal West Pico Solution (ThermoFischer) following manufacturer's protocols. All antibodies were purchased from Cell Signaling Technology: p-ERK (9101S), ERK (4695S), p-MEK (9121S), MEK (8727S), vinculin (13901S) Rabbit IgG-HRP (7074), […] (5125).
A general note: Immunoblotting shows a protein as a band on a membrane.

The test system of data set [4] is melanoma brain metastatic lesions. The following applies: combined with trametinib, clinical trials; cited from earlier work.
The target of another data set is T1, P-gp (Homo sapiens, UniProt P08183).
T1 construct: host or cells: MDCK (MDR1-MDCK)
The following applies: background statement on dabrafenib; cited from earlier work.

[5] abbreviates: 20 mg/kg IP, CD-1 mice, one-compartment model, listed as 261.
Where [6] appears, read: 20 mg/kg IP, CD-1 mice, one-compartment model, listed as everafenib.
[7] abbreviates: CD-1, mouse, serum, intraperitoneal, 20 mg/kg IP, read-out: [Drug] serum concentration.
The mark [8] stands for this setting: CD-1, mouse, serum, 25 mg/kg IV, read-out: [Drug] serum concentration.

Read-outs that look alike come from different tables or passages of the source.

Broadly, the AUC is concentration integrated over time. The Cmax is the peak of the concentration-time curve. By half-life is commonly meant how long it takes for the measured level to halve. A lower half-life goes with fast loss. A word on the IC50: it is the point on the concentration scale where inhibition reaches its midpoint.

T1 sequence (P08183 whole entry): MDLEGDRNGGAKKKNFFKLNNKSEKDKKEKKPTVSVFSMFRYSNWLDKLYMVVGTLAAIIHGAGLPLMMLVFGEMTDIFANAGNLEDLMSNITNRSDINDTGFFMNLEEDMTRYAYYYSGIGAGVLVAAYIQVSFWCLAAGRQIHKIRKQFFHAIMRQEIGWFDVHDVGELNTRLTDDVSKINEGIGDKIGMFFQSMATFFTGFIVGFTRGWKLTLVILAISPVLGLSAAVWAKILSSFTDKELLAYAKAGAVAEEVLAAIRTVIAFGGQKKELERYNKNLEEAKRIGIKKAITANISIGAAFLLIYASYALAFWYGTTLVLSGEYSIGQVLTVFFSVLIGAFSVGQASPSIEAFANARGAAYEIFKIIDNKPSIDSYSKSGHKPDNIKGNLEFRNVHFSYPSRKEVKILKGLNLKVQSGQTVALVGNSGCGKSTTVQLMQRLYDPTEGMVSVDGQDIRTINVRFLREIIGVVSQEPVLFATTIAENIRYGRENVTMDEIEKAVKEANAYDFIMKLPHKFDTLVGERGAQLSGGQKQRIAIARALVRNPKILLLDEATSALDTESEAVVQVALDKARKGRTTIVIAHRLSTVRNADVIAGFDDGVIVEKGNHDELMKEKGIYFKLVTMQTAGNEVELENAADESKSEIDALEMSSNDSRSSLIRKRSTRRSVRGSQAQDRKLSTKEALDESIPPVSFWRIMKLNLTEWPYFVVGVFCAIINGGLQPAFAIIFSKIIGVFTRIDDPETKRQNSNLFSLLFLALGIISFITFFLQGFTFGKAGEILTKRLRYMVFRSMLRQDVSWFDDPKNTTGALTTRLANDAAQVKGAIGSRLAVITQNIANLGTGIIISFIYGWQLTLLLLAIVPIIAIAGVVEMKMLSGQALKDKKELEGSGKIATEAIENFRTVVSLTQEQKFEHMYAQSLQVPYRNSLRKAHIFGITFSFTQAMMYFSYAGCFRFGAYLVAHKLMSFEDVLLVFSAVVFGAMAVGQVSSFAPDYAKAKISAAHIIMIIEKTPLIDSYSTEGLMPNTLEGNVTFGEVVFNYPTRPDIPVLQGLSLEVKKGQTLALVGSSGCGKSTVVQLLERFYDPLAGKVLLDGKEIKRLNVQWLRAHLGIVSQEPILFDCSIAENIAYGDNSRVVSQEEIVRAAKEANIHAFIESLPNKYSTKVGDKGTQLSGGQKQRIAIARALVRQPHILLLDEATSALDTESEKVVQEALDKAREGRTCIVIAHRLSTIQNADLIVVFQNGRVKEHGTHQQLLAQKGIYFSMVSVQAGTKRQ

For the compound `CCCS(=O)(=O)Nc1cc(Cl)cc(-c2nc(C(C)(C)C)sc2-c2ccnc(N)n2)c1F` [6-261, N-(3-(5-(2-aminopyrimidin-4-yl)-2-(tert-butyl)thiazol-4-yl)-5-chloro-2-fluorophenyl)propane-1-sulfonamide], the AUC in data set [1] (setting [5]) is 503964.63 ng·min/mL; in data set [1] (CD-1, mouse, serum, ip, 20 mg/kg, 20 mg/kg IP, CD-1 mice, one-compartment model, read-out: AUC (converted)), 504000 ng·min/mL. For the same compound, the CL is 39.69 mL/min/kg in data set [1] (setting [5]) and 39.7 mL/min/kg in data set [1] (setting [6]). Moreover, the Cmax in data set [1] (setting [5]) was 9364.7721 ng/mL; in data set [1] (CD-1, mouse, serum, ip, 20 mg/kg, 20 mg/kg IP, CD-1 mice, one-compartment model, read-out: Cmax) it was 9360 ng/mL. In data set [1] (setting [5]), this compound came in with a T1/2 of 37.3 min. In addition, the Vss came to 2.6929321 L/kg in data set [1] (setting [5]) and 2.6929 L/kg in data set [1] (setting [6]). Further, the concentration at 0 min in data set [1] (CD-1, mouse, serum, intraperitoneal, 20 mg/kg IP, 0 min, read-out: [Drug] serum concentration) is 0 nM. Moreover, the concentration at 15 min was found to be 12.9 ± 0.557 µM in data set [1] (setting [7]) and 16.4 ± 0.719 µM in data set [1] (setting [8]). Besides, the concentration at 30 min in data set [1] (CD-1, mouse, serum, intraperitoneal, 20 mg/kg IP, 30 min, read-out: [Drug] serum concentration) is 9.46 ± 0.621 µM. Moreover, the concentration at 45 min in data set [1] (CD-1, mouse, serum, intraperitoneal, 20 mg/kg IP, 45 min, read-out: [Drug] serum concentration) was determined as 6.7 ± 0.122 µM. Besides, the results for the concentration at 60 min in data set [1] (setting [7]) and in data set [1] (setting [8]) were 5.59 ± 0.167 µM and 6.56 ± 0.29 µM, respectively. Moreover, the concentration at 120 min in data set [1] (CD-1, mouse, serum, intraperitoneal, 20 mg/kg IP, 120 min, read-out: [Drug] serum concentration) worked out at 2.55 ± 0.194 µM. Besides, in data set [1] (CD-1, mouse, serum, intraperitoneal, 20 mg/kg IP, 240 min, read-out: [Drug] serum concentration), the concentration at 240 min stood at 0.581 ± 0.118 µM. In data set [1] (CD-1, mouse, serum, intraperitoneal, 20 mg/kg IP, 480 min, read-out: [Drug] serum concentration), the concentration at 480 min turned out to be 0.014 ± 0.00207 µM. The concentration at 960 min in data set [1] (CD-1, mouse, serum, intraperitoneal, 20 mg/kg IP, 960 min, read-out: [Drug] serum concentration) turned out to be 0 nM. Moreover, the half-life in data set [1] (CD-1, mouse, serum, ip, 20 mg/kg, 20 mg/kg IP, CD-1 mice, one-compartment model) was found to be 37.3 min. Moreover, the results for the IC50 (in data set [2]; in the data set with cell lines with WTBRAF) were 2 to 10 nM and above 1000 nM, respectively. Moreover, in the data set with cell lines with WTBRAF (cell culture), the “activity against glioma cell-lines with WTBRAF (U118MG, T98G, U87)” value is given as “no activity”. Further, the “inhibition of MAPK signaling (MEK1/2 and ERK1/2 phosphorylation)” value in data set [3] was “strongly inhibited”.
As to `CCCS(=O)(=O)Nc1cc(Cl)cc(-c2nc(C(C)(C)C)sc2-c2ccnc(NCCCCC(=O)O)n2)c1F` [6-263, 5-((4-(2-(tert-butyl)-4-(5-chloro-2-fluoro-3-(propylsulfonamido)phenyl)thiazol-5-yl)pyrimidin-2-yl)amino)pentanoic acid], in the data set with cell lines with WTBRAF, the IC50 is above 1000 nM. Moreover, the “inhibition of MAPK signaling (MEK1/2 and ERK1/2 phosphorylation)” value in data set [3] was “strongly inhibited”.
Turning to `CC(C)(C)c1nc(-c2cccc(NS(=O)(=O)c3c(F)cccc3F)c2F)c(-c2ccnc(N)n2)s1` [Dabrafenib, reference compound], the “duration of intracranial response” value in data set [4] is 6.5 months. Besides, the “efflux ratio (recognized by P-gp)” value on P-gp is reported as 11.4-18.3.

Source of the values: patent US20250230151A1, “COMPOUNDS FOR CANCERS DRIVEN BY BRAF MUTATION” (THE BOARD OF TRUSTEES OF THE UNIVERSITY OF ILLINOIS, priority 2021, published 2025).
